Source: PMC9870890 (Nature Communications, 2023)
Where “and” joins values, the source holds several entries; their conditions need not be identical. Equal entries are not always repeated.

Target: T1, M2RFL_WT (Homo sapiens, UniProt P08172)
T1 construct: made in house; host or cells: Sf9 membranes
T1 sequence (P08172 1-466): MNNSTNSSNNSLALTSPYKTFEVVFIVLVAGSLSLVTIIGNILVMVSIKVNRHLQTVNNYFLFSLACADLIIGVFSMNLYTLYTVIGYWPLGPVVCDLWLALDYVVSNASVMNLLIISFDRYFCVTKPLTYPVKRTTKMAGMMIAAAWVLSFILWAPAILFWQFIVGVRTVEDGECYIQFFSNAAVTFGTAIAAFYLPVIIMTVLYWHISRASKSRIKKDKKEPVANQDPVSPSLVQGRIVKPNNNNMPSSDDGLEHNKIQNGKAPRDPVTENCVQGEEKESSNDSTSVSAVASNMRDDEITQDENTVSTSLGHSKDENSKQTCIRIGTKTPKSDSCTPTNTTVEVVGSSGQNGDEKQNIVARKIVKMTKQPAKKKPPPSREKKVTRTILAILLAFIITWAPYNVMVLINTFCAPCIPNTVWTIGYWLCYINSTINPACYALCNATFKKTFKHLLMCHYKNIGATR
Experiment: [3H]-NMS competition binding (ACh competition, GoA titration), wild type full length M2R
Parameters: unit not given here
Procedure: Purified M2R receptor was reconstituted into high-density lipoprotein (HDL) particles constituting apolipoprotein A1(APOA1) and mixture of POPG: POPC lipids with 3:2 (mol:mol)ratio as previously described. […] Membranes or HDL particles were separated from excess [^3H]-NMS by Whatman GF/B filters using a Brandel 48-well harvester. The bound radioligand were read on a liquid scintillation counter (MicroBeta Jet, PerkinElmer). Data were analyzed by GraphPad Prism 9.2.0. […]
Data are given as mean
± SEM from 3 independent experiments.
M2RFL△9M_K383M and M2RFL_WT.
SEM from 3 independent experiments. […]

## CC(=O)OCC[N+](C)(C)C [ACh, acetylcholine]
log[M] (ACh) -3
  ACh competition curve data, Supplementary Fig. 4c: 7.417 and 5.223 and 6.047
log[M] (ACh) -4
  ACh competition curve data, Supplementary Fig. 4c: 27.7888 and 31.3709 and 30.2311
log[M] (ACh) -5
  ACh competition curve data, Supplementary Fig. 4c: 61.0434 and 71.3013 and 69.7784
log[M] (ACh) -6
  ACh competition curve data, Supplementary Fig. 4c: 79.8736 and 96.1082 and 98.1674
log[M] (ACh) -7
  ACh competition curve data, Supplementary Fig. 4c: 94.365 and 99.8819 and 105.753
log[M] (ACh) -8
  ACh competition curve data, Supplementary Fig. 4c: 97.3725 and 89.5377 and 100.935
